Values after ≈ are worked out from the molar mass of the structure shown.
Columns and labels:
[1] = test system: Klebsiella pneumoniae ATCC 10031; experiment: Broth microdilution antibacterial assay; type: cell-based; conditions: ATCC10031, read-out: MIC K. pneumonia ATCC 10031
[2] = test system: Bacillus subtilis 168; experiment: Broth microdilution antibacterial assay; type: cell-based; conditions: Bacillus subtilis, 168, read-out: MIC B. subtilis 168
[3] = target: 3CLpro of SARS-CoV-2 (Severe acute respiratory syndrome coronavirus 2, UniProt P0DTD1); experiment: biochemical
[4] = test system: Staphylococcus epidermidis ATCC 35984 (methicillin-resistant); experiment: Broth microdilution antibacterial assay; type: cell-based; conditions: ATCC35984, read-out: MIC S. epidermidis ATCC 35984
[5] = test system: Pseudomonas aeruginosa PAO1 (chloramphenicol-resistant); experiment: Broth microdilution antibacterial assay; type: cell-based; conditions: PAO1, read-out: MIC P. aeruginosa PAO1

Question: Which results are given for `CCCCCCCCCCCc1cc(O)cc(O)c1` [Compound 3, 5-undecyl-1,3-benzenediol]?
Answer: MIC [1]: 8 µg/mL (≈ 30.3 µM); MIC [2]: 1 µg/mL (≈ 3.78 µM); IC50 [3]: > 100 µM; MIC [4]: 2 µg/mL (≈ 7.56 µM); MIC [5]: > 64 µg/mL

Question: Which results are given for `CCCCCCCCCCCCCCc1cc(O)cc(O)c1` [Compound 5, 5-tetradecyl-1,3-benzenediol]?
Answer: MIC [1]: > 64 µg/mL; MIC [2]: > 64 µg/mL; IC50 [3]: > 100 µM; MIC [4]: > 64 µg/mL; MIC [5]: > 64 µg/mL

Question: `CCCCCCCC/C=C\CCCc1cc(O)cc(O)c1` [Compound 7, (Z)-5-(trideca-4-enyl)resorcinol] was tested. Which MIC [1] did it give?
Answer: The MIC was over 64 µg/mL.

Question: What about the MIC [2] of the same compound?
Answer: Its MIC is 1 µg/mL (≈ 3.44 µM).

Question: What about the IC50 [3] of the same compound?
Answer: The IC50 was over 100 µM.

Question: And the MIC [4]?
Answer: Its MIC is 4 µg/mL (≈ 13.8 µM).

Question: What about the MIC [5] of the same compound?
Answer: Its MIC is over 64 µg/mL.

Reference: article PMC9013261 (Bioorganic Chemistry, 2021)
